Measured values from article PMC3248976 (Bioorganic & medicinal chemistry letters, 2011).

What was measured:
Type in all cases: cell-based
[1] = molecular target: T1, S1P4-R (human Endothelial Differentiation Gene 6; EDG6) (Homo sapiens, UniProt O95977); assay: Tango S1P4-BLA U2OS beta-arrestin/beta-lactamase reporter agonist assay; settings: for S1P4-R agonist activity in words: concentrations up to 25 μM; for fold decrease in potency compared to the hit 2 / fold more potent than the hit 2: S1P4-R EC50 ratio vs hit 2; for fold less potent than 22p: S1P4-R EC50 ratio vs 22p
T1 sequence (O95977 1-384): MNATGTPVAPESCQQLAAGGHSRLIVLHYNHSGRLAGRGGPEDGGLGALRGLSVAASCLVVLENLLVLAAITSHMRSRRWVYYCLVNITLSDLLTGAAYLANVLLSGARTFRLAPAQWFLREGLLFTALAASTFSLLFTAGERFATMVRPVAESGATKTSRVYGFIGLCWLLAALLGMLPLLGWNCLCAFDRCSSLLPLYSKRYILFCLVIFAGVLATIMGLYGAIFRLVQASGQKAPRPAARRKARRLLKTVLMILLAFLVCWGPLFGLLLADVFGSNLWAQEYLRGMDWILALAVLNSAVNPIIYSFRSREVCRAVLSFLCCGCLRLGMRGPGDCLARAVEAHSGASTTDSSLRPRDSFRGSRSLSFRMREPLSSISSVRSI

[2] = molecular target: S1P1-R (Homo sapiens, UniProt P21453); assay: S1P1–3,5-Rs selectivity counter screen, S1P1-R; settings: mean of n = 3; NA = not active at concentrations up to 25 μM
Sequence of S1P1-R (P21453 whole entry): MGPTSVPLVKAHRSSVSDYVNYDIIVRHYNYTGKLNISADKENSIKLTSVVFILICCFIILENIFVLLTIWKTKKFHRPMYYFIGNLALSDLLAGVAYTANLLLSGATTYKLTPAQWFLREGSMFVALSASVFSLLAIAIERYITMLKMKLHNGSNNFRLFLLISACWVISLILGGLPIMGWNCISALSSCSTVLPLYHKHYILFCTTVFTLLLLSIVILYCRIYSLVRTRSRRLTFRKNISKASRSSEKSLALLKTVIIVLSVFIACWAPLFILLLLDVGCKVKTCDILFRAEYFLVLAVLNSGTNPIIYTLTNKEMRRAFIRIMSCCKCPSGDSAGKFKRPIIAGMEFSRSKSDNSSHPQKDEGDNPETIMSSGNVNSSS

[3] = molecular target: S1P2-R (Homo sapiens, UniProt O95136); assay: S1P1–3,5-Rs selectivity counter screen, S1P2-R; settings: mean of n = 3; NA = not active at concentrations up to 25 μM
Sequence of S1P2-R (O95136 whole entry): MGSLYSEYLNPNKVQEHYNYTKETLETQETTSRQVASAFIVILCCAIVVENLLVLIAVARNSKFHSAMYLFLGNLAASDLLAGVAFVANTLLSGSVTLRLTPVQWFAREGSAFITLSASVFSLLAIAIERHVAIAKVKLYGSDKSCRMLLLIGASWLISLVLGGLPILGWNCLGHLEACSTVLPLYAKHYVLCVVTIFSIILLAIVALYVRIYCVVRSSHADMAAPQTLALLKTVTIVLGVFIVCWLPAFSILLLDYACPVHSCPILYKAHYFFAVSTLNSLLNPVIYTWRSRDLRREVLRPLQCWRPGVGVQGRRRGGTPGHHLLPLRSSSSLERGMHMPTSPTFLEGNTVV

[4] = molecular target: S1P3-R (Homo sapiens, UniProt Q99500); assay: S1P1–3,5-Rs selectivity counter screen, S1P3-R; settings: mean of n = 3; NA = not active at concentrations up to 25 μM
Sequence of S1P3-R (Q99500 whole entry): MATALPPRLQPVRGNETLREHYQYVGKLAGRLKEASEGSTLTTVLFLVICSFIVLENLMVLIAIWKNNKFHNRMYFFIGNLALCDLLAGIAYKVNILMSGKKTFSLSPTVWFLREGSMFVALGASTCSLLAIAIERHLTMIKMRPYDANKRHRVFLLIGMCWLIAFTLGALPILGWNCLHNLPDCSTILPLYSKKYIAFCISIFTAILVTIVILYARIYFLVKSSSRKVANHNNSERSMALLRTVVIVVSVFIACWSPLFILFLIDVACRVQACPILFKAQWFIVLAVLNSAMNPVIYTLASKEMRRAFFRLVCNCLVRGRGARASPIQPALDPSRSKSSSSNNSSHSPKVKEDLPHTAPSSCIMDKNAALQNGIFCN

[5] = molecular target: S1P5-R (Homo sapiens, UniProt Q9H228); assay: S1P1–3,5-Rs selectivity counter screen, S1P5-R; settings: mean of n = 3; NA = not active at concentrations up to 25 μM
Sequence of S1P5-R (Q9H228 whole entry): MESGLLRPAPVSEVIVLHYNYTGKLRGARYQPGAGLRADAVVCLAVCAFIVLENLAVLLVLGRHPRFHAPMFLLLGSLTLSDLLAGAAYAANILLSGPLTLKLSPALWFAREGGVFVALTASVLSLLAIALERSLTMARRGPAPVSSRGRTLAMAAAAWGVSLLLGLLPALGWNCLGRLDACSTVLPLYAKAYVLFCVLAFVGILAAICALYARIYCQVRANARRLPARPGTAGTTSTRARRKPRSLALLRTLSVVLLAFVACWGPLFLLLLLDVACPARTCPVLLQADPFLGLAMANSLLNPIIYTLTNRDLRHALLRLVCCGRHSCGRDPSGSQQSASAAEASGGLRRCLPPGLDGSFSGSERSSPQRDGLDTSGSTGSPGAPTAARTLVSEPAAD

Structure (SMILES): Cc1ccc(OCCOc2ccccc2Cl)c([N+](=O)[O-])n1 [8a]
- S1P4-R agonist activity in words [1]: complete loss of activity

Structure (SMILES): Cc1ccc(OCCOc2ccc(Cl)cc2)c([N+](=O)[O-])n1 [8b]
- S1P4-R agonist activity in words [1]: complete loss of activity

Structure (SMILES): Cc1ccc(OCCOc2ccccc2)c([N+](=O)[O-])n1 [8f]
- S1P4-R agonist activity in words [1]: complete loss of activity

Structure (SMILES): Cc1ccc(OCCOc2cc(Cl)cc([N+](=O)[O-])c2)c([N+](=O)[O-])n1 [8q]
- fold decrease in potency compared to the hit 2 [1]: 22 fold

Structure (SMILES): Cc1ccc(OCCOc2ccc(Br)cc2C(F)(F)F)c([N+](=O)[O-])n1 [8r]
- fold less potent than 8h ([1]; S1P4-R EC50 ratio vs 2-chloro analog 8h): 3 fold

Structure (SMILES): Cc1ccc(OCCOc2c(Cl)cc(Cl)cc2Cl)c([N+](=O)[O-])n1 [8s]
- fold decrease in potency compared to the hit 2 [1]: 3 fold

Structure (SMILES): Cc1ccc(OCCCOc2ccc(Cl)cc2Cl)c([N+](=O)[O-])n1 [13a]
- S1P4-R agonist activity in words [1]: complete loss of activity

Structure (SMILES): Cc1ccc(OCCCc2ccc(Cl)cc2Cl)c([N+](=O)[O-])n1 [13b]
- fold decrease in potency compared to the hit 2 [1]: 5–6 fold

Structure (SMILES): Cc1ccc(OC(=O)COc2ccc(Cl)cc2Cl)c([N+](=O)[O-])n1 [13d]
- S1P4-R agonist activity in words [1]: complete loss of activity

Structure (SMILES): O=[N+]([O-])c1ncccc1OCCOc1ccc(Cl)cc1Cl [22a]
- fold decrease in potency compared to the hit 2 [1]: 18 fold

Structure (SMILES): FCc1ccc(OCCOc2ccc(Cl)cc2Cl)c(Cl)n1 [22aa]
- fold more potent than the hit 2 [1]: 3.5 fold

Structure (SMILES): Cc1ccc(OCCOc2ccc(Cl)cc2Cl)c([N+](=O)[O-])c1 [22c]
- fold decrease in potency compared to the hit 2 [1]: 8 fold

Structure (SMILES): O=[N+]([O-])c1nc(Cl)ccc1OCCOc1ccc(Cl)cc1Cl [22d]
- fold decrease in potency compared to the hit 2 [1]: 2 fold

Structure (SMILES): Cc1ccc(OCCOc2ccc(Cl)cc2Cl)c(Br)n1 [22l]
- fold more potent than the hit 2 [1]: 3 fold

Structure (SMILES): Clc1ccc(OCCOc2ccc(Br)nc2Br)c(Cl)c1 [22n]
- fold more potent than the hit 2 [1]: 3 fold

Structure (SMILES): Fc1ccc(OCCOc2ccc(Cl)cc2Cl)c(Br)n1 [22o]
- fold less potent than 22l ([1]; S1P4-R EC50 ratio vs 22l): 4 fold
- fold more potent than 22m ([1]; S1P4-R EC50 ratio vs 22m): 6 fold

Structure (SMILES): OCc1ccc(OCCOc2ccc(Cl)cc2Cl)c(I)n1 [22t]
- fold less potent than 22p [1]: 4 fold

Structure (SMILES): O=Cc1ccc(OCCOc2ccc(Cl)cc2Cl)c(I)n1 [22u]
- fold less potent than 22p [1]: 38 fold

Structure (SMILES): OCc1ccc(OCCOc2ccc(Cl)cc2Cl)c(Cl)n1 [22v]
- fold less active than the 2-iodine counterpart 22t ([1]; S1P4-R EC50 ratio vs 22t): 5 fold

Structure (SMILES): Cc1ccc(OCCOc2ccc(Cl)cc2Cl)c([N+](=O)[O-])n1 [compound 2, 3-(2-(2,4-dichlorophenoxy)ethoxy)-6-methyl-2-nitropyridine]
- EC50 nM, S1P1-R [2]: no agonistic activity
- EC50 nM, S1P2-R [3]: no agonistic activity
- EC50 nM, S1P3-R [4]: no agonistic activity
- EC50 nM, S1P5-R [5]: no agonistic activity
